# Source: patent publication EP4389751A1, “HETEROCYCLIC COMPOUNDS AND USES THEREOF” (Kumquat Biosciences Inc., priority 2021, dated 2024)
# Target: T1, K-Ras G12S (Homo sapiens, UniProt P01116, G12S)
# T1 construct: made in house; host or cells: E. coli (e.g., BL21 (DE3))
# Experiment: HTRF assay of the K-Ras / SOS1 interaction
# Type: biochemical
# Conditions: IC50 (against K-Ras G12D) to IC50 (against K-Ras G12S)
# Text: This assay can be also used to assess a selective inhibition or reduction of signaling output of a mutant Ras protein relative to a wildtype, or relative to a different mutant Ras protein. For example, the equilibrium interaction of wildtype Kras or K-Ras mutant (e.g., wildtype or a mutant thereof including those mentioned in Example 6) with SOS1 (e.g., hSOS1) can be assessed as a proxy or an indication for a subject compound's ability to bind and inhibit Ras protein. HTRF assay detects from (i) a fluorescence resonance energy transfer (FRET) donor (e.g., antiGST-Europium) that is bound to GST-tagged K-Ras mutant to (ii) a FRET acceptor (e.g., anti-6His-XL665) bound to a His-tagged hSOS 1.
# The assay buffer can contain ~5 mM HEPES pH 7.4, -150 mM NaCI, - 1 mM DTT, 0.05% BSA and 0.0025% (v/v) Igepal. A Ras working solution is prepared in an assay buffer containing typically a suitable amount of the protein construct (e.g., GST-tagged K-Ras mutant) and the FRET donor (e.g., antiGST-Eu(K) from Cisbio, France). A SOS1 working solution is prepared in an assay buffer containing suitable amount of the protein construct (e.g., His-hSOS1) and the FRET acceptor (e.g., anti-6His-XL665 from Cisbio, France). A suitable amount of the protein construct will depend on the range of activity or range of IC50 values being detected or under investigation. For detecting IC50 within a range of 500 nM, the protein constructs of the same range of molarity can be utilized.
# A fixed volume of DMSO with or without test compound is transferred into a 384-well plate. Ras working solution is added to all wells of the test plate. SOS1 working solution is added to all wells except for those that are subsequently filled the inhibitor control solution. Upon incubation for about 10 minutes or longer, the fluorescence is measured with a M1000Pro plate reader (Tecan) using HTRF detection (excitation 337nm, emission 1 : 620nm, emission 2: 665nm). Compounds are tested in duplicates at different concentrations (for example, 10 µM, 2.5 µM, 0.63 µM, 0.16 µM, 0.04 µM, 0.01 µM test compound). The ratiometric data (i.e., emission 2 divided by emission 1) is used to calculate IC50 values against Ras using GraphPad Prism (GraphPad software). Following this general procedure, samples were tested with or without a subject compound disclosed herein including compounds exemplified in Table 3 to assess their abilities to inhibit K-Ras G12S relative to another mutant (e.g., K-Ras G12D). Signaling output measured in terms of IC50 values can be obtained, a ratio of IC50 against one mutant relative to another mutant can be calculated. For instance, a selective reduction of K-Ras G12S signaling output can be evidenced by a ratio greater than one. In particular, a selective reduction of K-Ras G12S signaling relative to K-Ras G12D signaling is evidenced as the ratio of IC50 (against K-Ras G12D) to IC50 (against K-Ras G12S) is greater than 1. […]
# T1 sequence (P01116 1-188 isoform P01116-2 G12S): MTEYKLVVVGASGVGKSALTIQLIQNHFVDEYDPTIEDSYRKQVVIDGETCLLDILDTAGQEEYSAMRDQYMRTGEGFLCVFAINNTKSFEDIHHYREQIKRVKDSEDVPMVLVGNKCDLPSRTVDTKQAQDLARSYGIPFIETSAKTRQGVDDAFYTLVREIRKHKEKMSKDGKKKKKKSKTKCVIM
row,SMILES,Ratio of IC50 KRAS G12D vs. IC50 KRAS G12S
1,"N#Cc1ccn(C(=O)N2CC3CCC(C2)N3c2nc(OC[C@@]34CCCN3C[C@H](F)C4)nc3c(F)c(-c4ccc(F)c5sc(N)nc45)c(Cl)cc23)c1 [Compound A290, 1-(8-(7-(2-amino-7-fluorobenzo[d]thiazol-4-yl)-6-chloro-8-fluoro-2-(((2R,7aS)-2-fluorotetrahydro-1H-pyrrolizin-7a(5H)-yl)methoxy)quinazolin-4-yl)-3,8-diazabicyclo[3.2. 1]octane-3-carbonyl)-1H-pyrrole-3-carbonitrile]",A (A: indicates that the ratio of IC50 against KrasG12D vs. IC50 against KrasG12S is 1-fold or greater)
2,"Nc1nc2c(-c3c(Cl)cc4c(N5CC6(CCN(C(=O)n7cncn7)CC6)C5)nc(OC[C@@]56CCCN5C[C@H](F)C6)nc4c3F)ccc(F)c2s1 [Compound A292, (2-(7-(2-amino-7-fluorobenzo[d]thiazol-4-yl)-6-chloro-8-fluoro-2-(((2R,7aS)-2-fluorotetrahydro-1H-pyrrolizin-7a(5H)-yl)methoxy)quinazolin-4-yl)-2,7-diazaspiro[3.5]nonan-7-yl)(1H-1,2,4-triazol-1-yl)methanone]",A (A: indicates that the ratio of IC50 against KrasG12D vs. IC50 against KrasG12S is 1-fold or greater)
3,"Nc1nc2c(-c3c(Cl)cc4c(OC5CC6CN(C(=O)n7cncn7)CC65)nc(OC[C@@]56CCCN5C[C@H](F)C6)nc4c3F)ccc(F)c2s1 (stereo partly drawn) [Compound A297, (6-((7-(2-amino-7-fluorobenzo[d]thiazol-4-yl)-6-chloro-8-fluoro-2-(((2R,7aS)-2-fluorotetrahydro-1H-pyrrolizin-7a(5H)-yl)methoxy)quinazolin-4-yl)oxy)-3-azabicyclo[3.2.0]heptan-3-yl)(1H-1,2,4-triazol-1-yl)methanone]",A (A: indicates that the ratio of IC50 against KrasG12D vs. IC50 against KrasG12S is 1-fold or greater)
4,"Nc1nc2c(-c3c(Cl)cc4c(NC5C6CN(C(=O)n7cncn7)CC65)nc(OC[C@@]56CCCN5C[C@H](F)C6)nc4c3F)ccc(F)c2s1 (stereo partly drawn) [Compound A299, (6-((7-(2-amino-7-fluorobenzo[d]thiazol-4-yl)-6-chloro-8-fluoro-2-(((2R,7aS)-2-fluorotetrahydro-1H-pyrrolizin-7a(5H)-yl)methoxy)quinazolin-4-yl)amino)-3-azabicyclo[3.1.0]hexan-3-yl)(1H-1,2,4-triazol-1-yl)methanone]",A (A: indicates that the ratio of IC50 against KrasG12D vs. IC50 against KrasG12S is 1-fold or greater)

# System: GP2D cells
# Experiment: Cell proliferation assay (CellTiter-Glo), K-Ras G12D cells
# Type: cell-based
# Conditions: GP2D cells (K-Ras G12D); read-out: Inhibition of GP2D Cells (IC50)
# Experimental: ASPC-1 (ATCC CRL-1682), Panc-10.05 (ATCC CRL-2547), A427, and GP2D (Sigma 95090714) cell lines comprise a G12D mutation and can be used to assess Ras cellular signaling in vitro, e.g., in response to the compounds herein. […] ASPC-1 culture medium is prepared with RPMI-1640 and 10% heat-inactivated FBS. Panc-10.05 culture medium is prepared with RPMI-1640, 10 Units/ml human recombinant insulin, and 10% FBS. A427 cell culture is prepared with RPMI-1640 and 10% heat-inactivated FBS. GP2D culture medium is prepared with DMEM with 2mM glutamine and 10% heat-inactivated FBS. A Cell Titer-Glo (CTG) luminescent based assay (Promega) is used to assess growth of the cells, as a measurement of the ability of the compounds herein to inhibit Ras signaling in the cells. The cells (e.g., 800 per well) are seeded in their respective culture medium in standard tissue culture-treated 384-well format plates (Falcon #08-772-116) or ultra-low attachment surface 384-well format plates (S-Bio # MS-9384UZ ). The day after plating, cells are treated with a dilution series (e.g., a 9 point 3-fold dilution series) of the compounds herein (e.g., approximately 40 µl final volume per well). Cell viability can be monitored (e.g., approximately 5 days later) according to the manufacturer's recommended instructions, where the CellTiter-Glo reagent is added (e.g., approximately 10 µl), vigorously mixed, covered, and placed on a plate shaker (e.g., approximately for 20 min) to ensure sufficient cell lysis prior to assessment of luminescent signal. The IC50 values are determined using the four parameter fit. The resulting IC50 value is a measurement of the ability of the compounds herein to reduce cell growth of Ras-driven cells (e.g., tumor cell lines) in vitro and/or in vivo.
row,SMILES,IC50
1,"C#Cc1c(F)ccc2cc(O)cc(-c3ncc4c(N5CC6CCC(C5)N6C(=O)Nc5ncccn5)nc(OC[C@@]56CCCN5C[C@H](F)C6)nc4c3F)c12 [Compound A131, 3-(7-(8-ethynyl-7-fluoro-3-hydroxynaphthalen-1-yl)-8-fluoro-2-(((2R,7aS)-2-fluorotetrahydro-1H-pyrrolizin-7a(5H)-yl)methoxy)pyrido[4,3-d]pyrimidin-4-yl)-N-(pyrimidin-2-yl)-3,8-diazabicyclo[3.2. 1]octane-8-carboxamide]",≤ 1000 nM
2,"N#Cc1c(N)sc2c(F)ccc(-c3c(Cl)cc4c(N5CC6CCC(C5)N6C(=O)n5ccnc5C#N)nc(OC[C@@]56CCCN5C[C@H](F)C6)nc4c3F)c12 [Compound A220, 1-(3-(7-(2-amino-3-cyano-7-fluorobenzo[b]thiophen-4-yl)-6-chloro-8-fluoro-2-(((2R,7aS)-2-fluorotetrahydro-1H-pyrrolizin-7a(5H)-yl)methoxy)quinazolin-4-yl)-3,8-diazabicyclo[3.2. 1]octane-8-carbonyl)-1H-imidazole-2-carbonitrile]",≤ 1000 nM
3,"C#Cc1c(F)ccc2cc(O)cc(-c3ncc4c(N5CC6CCC(C5)N6C(=O)n5cncn5)nc(OC[C@@]56CCCN5C[C@H](F)C6)nc4c3F)c12 [Compound A234, (3-(7-(8-ethynyl-7-fluoro-3-hydroxynaphthalen-1-yl)-8-fluoro-2-(((2R,7aS)-2-fluorotetrahydro-1H-pyrrolizin-7a(5H)-yl)methoxy)pyrido[4,3-d]pyrimidin-4-yl)-3,8-diazabicyclo[3.2.1]octan-8-yl)(1H-1,2,4-triazol-1-yl)methanone]",≤ 1000 nM
4,N#Cc1c(N)sc2c(F)ccc(-c3c(Cl)cc4c(N5CC6CCC(C5)N6C(=O)n5ncnc5C#N)nc(OC[C@@]56CCCN5C[C@H](F)C6)nc4c3F)c12 [Compound A246],≤ 1000 nM
5,"C#Cc1c(F)ccc2cc(O)cc(-c3ccc4c(N5CC6CCC(C5)N6C(=O)n5cncn5)nc(OC[C@@]56CCCN5C[C@H](F)C6)nc4c3F)c12 [Compound A281, (3-(7-(8-ethynyl-7-fluoro-3-hydroxynaphthalen-1-yl)-8-fluoro-2-(((2R,7aS)-2-fluorotetrahydro-1H-pyrrolizin-7a(5H)-yl)methoxy)quinazolin-4-yl)-3,8-diazabicyclo[3.2.1]octan-8-yl)(1H-1,2,4-triazol-1-yl)methanone]",≤ 1000 nM

# Same assay, conditions: GP2d, read-out: Inhibition of GP2D Cells (IC50)
row,SMILES,IC50
1,"N#Cc1cnn(C(=O)N2C3CCC2CN(c2nc(OC[C@@]45CCCN4C[C@H](F)C5)nc4c(F)c(-c5ccc(F)c6sc(N)c(C#N)c56)ccc24)C3)c1 [Compound A176, 1-(3-(7-(2-amino-3-cyano-7-fluorobenzo[b]thiophen-4-yl)-8-fluoro-2-(((2R,7aS)-2-fluorotetrahydro-1H-pyrrolizin-7a(5H)-yl)methoxy)quinazolin-4-yl)-3,8-diazabicyclo[3.2. 1]octane-8-carbonyl)-1H-pyrazole-4-carbonitrile]",1000 to 10000 nM
2,"C#Cc1c(F)ccc2cccc(-c3ccc4c(N5CC6CCC(C5)N6C(=O)n5cncn5)nc(OC[C@@]56CCCN5C[C@H](F)C6)nc4c3F)c12 [Compound A229, (3-(7-(8-ethynyl-7-fluoronaphthalen-1-yl)-8-fluoro-2-(((2R,7aS)-2-fluorotetrahydro-1H-pyrrolizin-7a(5H)-yl)methoxy)quinazolin-4-yl)-3,8-diazabicyclo[3.2.1]octan-8-yl)(1H-1,2,4-triazol-1-yl)methanone]",1000 to 10000 nM
3,"N#Cc1c(N)sc2c(F)ccc(-c3c(Cl)cc4c(O[C@@H]5C[C@H]6CC[C@@H](C5)N6C(=O)n5cncn5)nc(OC[C@@]56CCCN5C[C@H](F)C6)nc4c3F)c12 [Compound A247, 4-(4-(((1R,3s,5S)-8-(1H-1,2,4-triazole-1-carbonyl)-8-azabicyclo[3.2.1]octan-3-yl)oxy)-6-chloro-8-fluoro-2-(((2R,7aS)-2-fluorotetrahydro-1H-pyrrolizin-7 a(5H)-yl)methoxy)quinazolin-7-yl)-2-amino-7-fluorobenzo[b]thiophene-3-carbonitrile]",1000 to 10000 nM
